What was measured:
[1] = test system: inflammatory pulmonary infiltrate; experiment: I-124 PUH71 PET-CT, microdose study in patients (FIGS. 1-2); assay type: in vivo, human; details: person with ovarian cancer; PET-CT 24 hours after intravenous injection of 9.3 mCi
Method: (§1) Positron emission tomography (PET) combined with X-ray computed tomography (CT) was performed using a state of the art integrated PET-CT scanner (Discovery DSTE™ General Electric). CT scans for attenuation correction and anatomic coregistration were performed prior to tracer-injection, using the following acquisition parameters: 140 kVp; 85 mA; pitch of 1.75:1; reconstructed slice thickness of 3.75 mm; 0.8 s per rotation. The CT protocol was designed for anatomic localization of tracer-signal and for attenuation correction, while minimizing radiation exposure. Each patient received ˜185 megabecquerel (MBq) [^124I]-PU-H71 by peripheral vein over two minutes. PET emission scans were acquired in two-dimensional mode starting at the mid-thighs moving toward the head, for 7.5 minutes per PET bed position. PET data were reconstructed using a standard ordered subset expected maximization iterative algorithm. Emission data were corrected for scatter, attenuation and decay. Clinical FDG PET-CT studies were performed according to standard methods using state of the art PET-CT scanners. [^124I]-PU-H71 scans were performed at 3-4 hrs, 20-24 hrs, 48-72 hours and, optionally, ˜168 hrs after tracer administration on the microdose [^124I]-PU-H71 PET-CT study.

[2] = test system: inflammatory pulmonary consolidation; experiment: I-124 PUH71 PET-CT, tracer mixed with a therapeutic dose of non-radioactive PUH71 (FIGS. 3-4); assay type: in vivo, human
Method: as §1
PU-PET images were taken 1.5, 4, 24 and 48-72 hrs after co-administration on the tracer mixed with a therapeutic dose of non-radioactive PUH71 in a total volume of […], co-infused intravenously over one hour. Patient were treated with PU-H71 at escalating dose levels determined by a modified continuous reassessment model. Each patient is treated with his or her assigned dose on day 1, 4, 8 and 11 of each 21 day cycle. Pre- and post-treatment biopsies were collected for correlative studies including LCMSMS quantification of PU-H71, with the latter obtained within 24 hours of their cycle 1, day 1 dose of PU-H71.

[3] = person with breast cancer, 6.5 mCi mixed with 35 mg non-radioactive PUH71, PET

accumulation of tracer in inflammatory pulmonary infiltrate (apex of left lung) [1] | clearance of tracer from blood stream (void of activity within the cardiac atrium) [2, 3] | tracer retention in left ventricle myocardium [2, 3] | uptake relative to surrounding healthy tissues ([2]; diseased tissue, patients, PET) | blood clearance ([2]; patients, PET) | retention in the diseased tissue ([2]; patients, PET) | Structure (SMILES) | accumulation and retention of tracer in inflammatory pulmonary consolidation (right lung) ([2]; person with breast cancer, 6.5 mCi mixed with 35 mg non-radioactive PUH71, immediately, 4 hours and 24 hours post-injection) | outcome of pulmonary consolidation on CT scan ([2]; two weeks after imaging, PUH71 35 mg twice a week for two weeks per three week cycle, together with antibiotic treatment and pleural fluid drainage)
distinct accumulation | cleared from blood stream | distinct tracer retention |  |  |  | CC(C)NCCCn1c(Sc2cc3c(cc2[124I])OCO3)nc2c(N)ncnc21 [I-124 PUH71] | distinct accumulation and sustained retention | 
 |  |  | high uptake | rapid blood clearance | sustained retention | CC(C)NCCCn1c(Sc2cc3c(cc2I)OCO3)nc2c(N)ncnc21 [PUH71] |  | pulmonary consolidation had resolved

From US10617772B2, “Hsp9O-targeted inflammation and infection imaging and therapy” (Memorial Sloan Kettering Cancer Center, priority 2014, dated 2020)
